In paper PMC12503911, “Cytotoxicity of Atropisomeric [1,1′‐Binaphthalene]‐2,2′‐Diamines (BINAM) and Analogs in Human Cancer Cells: Enantioselectivity, Structure–Activity Relationships, and Mechanism” (Chemmedchem, 2025):

Tests used:
[1] = target: T1, AuroraA (Homo sapiens, UniProt O14965); assay: […]PanQinase radiometric kinase assay (Reaction Biology); type: biochemical; settings: read-out: Residual activities [% of control] / 1(R) 10 μM
T1 construct: gene AURKA
T1 sequence (O14965 1-403): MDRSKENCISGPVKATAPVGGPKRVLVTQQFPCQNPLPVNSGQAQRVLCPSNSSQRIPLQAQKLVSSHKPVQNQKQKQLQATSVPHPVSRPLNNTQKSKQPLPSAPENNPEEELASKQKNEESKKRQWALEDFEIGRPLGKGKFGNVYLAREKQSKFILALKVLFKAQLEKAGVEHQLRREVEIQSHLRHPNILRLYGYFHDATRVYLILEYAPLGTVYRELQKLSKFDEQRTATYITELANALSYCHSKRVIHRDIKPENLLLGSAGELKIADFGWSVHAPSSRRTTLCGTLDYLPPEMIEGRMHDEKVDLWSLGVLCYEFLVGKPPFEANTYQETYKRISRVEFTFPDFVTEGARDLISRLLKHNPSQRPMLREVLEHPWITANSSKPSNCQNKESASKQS

[2] = target: T2, ASK1 (Homo sapiens, UniProt Q99683); assay: as above; type: biochemical; settings: read-out: Residual activities [% of control] / 1(R) 10 μM
T2 construct: gene MAP3K5
T2 sequence (Q99683 1-1374): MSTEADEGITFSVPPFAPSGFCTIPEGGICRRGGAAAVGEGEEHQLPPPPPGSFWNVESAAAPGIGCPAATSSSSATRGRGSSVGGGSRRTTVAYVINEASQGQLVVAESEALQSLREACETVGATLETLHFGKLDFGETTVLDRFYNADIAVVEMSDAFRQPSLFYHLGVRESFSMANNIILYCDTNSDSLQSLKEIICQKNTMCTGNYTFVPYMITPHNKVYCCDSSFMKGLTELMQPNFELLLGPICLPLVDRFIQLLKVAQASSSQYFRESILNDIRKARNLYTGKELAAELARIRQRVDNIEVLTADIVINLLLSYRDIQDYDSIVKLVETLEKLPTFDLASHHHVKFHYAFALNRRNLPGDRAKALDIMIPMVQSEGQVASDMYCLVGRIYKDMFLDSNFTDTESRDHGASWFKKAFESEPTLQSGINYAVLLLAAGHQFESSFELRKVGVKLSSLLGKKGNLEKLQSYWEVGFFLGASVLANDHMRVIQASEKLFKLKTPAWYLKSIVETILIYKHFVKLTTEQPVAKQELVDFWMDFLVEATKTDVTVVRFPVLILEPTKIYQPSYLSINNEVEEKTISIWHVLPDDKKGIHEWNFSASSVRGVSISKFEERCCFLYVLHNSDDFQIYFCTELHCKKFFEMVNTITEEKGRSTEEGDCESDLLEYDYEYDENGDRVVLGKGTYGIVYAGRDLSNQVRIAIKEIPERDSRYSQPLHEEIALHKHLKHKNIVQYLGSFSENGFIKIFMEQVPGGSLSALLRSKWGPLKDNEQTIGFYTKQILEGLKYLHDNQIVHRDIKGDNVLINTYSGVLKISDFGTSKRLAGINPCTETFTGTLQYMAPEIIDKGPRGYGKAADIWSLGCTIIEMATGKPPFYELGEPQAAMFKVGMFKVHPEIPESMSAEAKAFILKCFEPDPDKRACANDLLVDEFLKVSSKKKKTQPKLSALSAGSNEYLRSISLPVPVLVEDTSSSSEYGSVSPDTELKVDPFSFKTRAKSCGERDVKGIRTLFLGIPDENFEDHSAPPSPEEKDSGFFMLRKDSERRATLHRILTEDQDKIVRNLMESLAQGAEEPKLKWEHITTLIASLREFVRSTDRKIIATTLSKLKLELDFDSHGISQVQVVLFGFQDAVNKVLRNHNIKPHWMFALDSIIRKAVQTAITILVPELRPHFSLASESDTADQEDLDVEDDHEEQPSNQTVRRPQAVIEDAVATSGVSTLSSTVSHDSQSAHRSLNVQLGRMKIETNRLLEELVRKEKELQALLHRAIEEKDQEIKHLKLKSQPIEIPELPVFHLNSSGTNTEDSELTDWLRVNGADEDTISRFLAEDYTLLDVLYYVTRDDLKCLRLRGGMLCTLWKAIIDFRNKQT

[3] = target: T3, AuroraB (Homo sapiens, UniProt Q96GD4); assay: biochemical; set-up: 33PanQinase radiometric kinase activity assay, residual activity in % of control, contract lab Reaction Biology; settings: mean of intraexperimental duplicates, n = 1; read-out: Residual activities [% of control] / 1(R) 10 µM
T3 construct: gene AURKB

[4] = target: LIMK1 (Homo sapiens, UniProt P53667); assay: biochemical; set-up: 33PanQinase radiometric kinase activity assay, residual activity in % of control, contract lab Reaction Biology; settings: mean of intraexperimental duplicates, n = 1; read-out: Residual activities [% of control] / 1(R) 10 µM
[5] = target: T2, ASK1; assay: biochemical; set-up: 33PanQinase radiometric kinase activity assay, residual activity in % of control, contract lab Reaction Biology; settings: mean of intraexperimental duplicates, n = 1; read-out: Residual activities [% of control] / 1(S) 10 µM
[6] = target: T1, AuroraA; assay: biochemical; set-up: 33PanQinase radiometric kinase activity assay, residual activity in % of control, contract lab Reaction Biology; settings: mean of intraexperimental duplicates, n = 1; read-out: Residual activities [% of control] / 1(S) 10 µM

T3 sequence (Q96GD4 whole entry): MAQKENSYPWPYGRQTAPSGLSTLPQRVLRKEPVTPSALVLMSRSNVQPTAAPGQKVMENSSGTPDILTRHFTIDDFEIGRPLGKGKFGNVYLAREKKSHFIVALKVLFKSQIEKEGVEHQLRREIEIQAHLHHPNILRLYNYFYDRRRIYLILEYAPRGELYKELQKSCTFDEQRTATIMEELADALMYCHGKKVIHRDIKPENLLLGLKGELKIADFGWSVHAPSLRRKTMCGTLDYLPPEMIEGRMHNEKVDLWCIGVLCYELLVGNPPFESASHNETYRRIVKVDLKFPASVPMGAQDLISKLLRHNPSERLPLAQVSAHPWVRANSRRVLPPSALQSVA
LIMK1, sequence (P53667 whole entry): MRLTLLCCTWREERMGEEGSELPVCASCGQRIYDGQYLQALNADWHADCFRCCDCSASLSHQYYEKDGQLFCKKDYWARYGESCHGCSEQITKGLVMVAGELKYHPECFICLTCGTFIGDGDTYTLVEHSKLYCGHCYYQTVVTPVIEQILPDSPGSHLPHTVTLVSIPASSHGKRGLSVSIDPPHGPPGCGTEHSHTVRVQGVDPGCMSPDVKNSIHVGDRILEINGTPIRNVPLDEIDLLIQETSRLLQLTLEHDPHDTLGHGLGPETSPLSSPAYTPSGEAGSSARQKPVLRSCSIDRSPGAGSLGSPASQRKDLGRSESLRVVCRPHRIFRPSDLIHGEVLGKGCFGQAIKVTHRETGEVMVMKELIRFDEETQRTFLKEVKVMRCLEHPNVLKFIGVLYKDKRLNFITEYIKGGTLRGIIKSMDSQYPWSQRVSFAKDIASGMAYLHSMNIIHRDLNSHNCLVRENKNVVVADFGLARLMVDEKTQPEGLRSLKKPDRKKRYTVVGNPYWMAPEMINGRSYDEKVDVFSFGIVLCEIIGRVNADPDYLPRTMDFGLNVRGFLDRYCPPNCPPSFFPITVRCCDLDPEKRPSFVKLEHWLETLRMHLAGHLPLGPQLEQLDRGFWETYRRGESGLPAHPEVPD

remaining activity at 10 µM [1] [%] | remaining activity at 10 µM [2] [%] | remaining activity at 10 µM [3] [%] | remaining activity at 10 µM [4] [%] | remaining activity at 10 µM [5] [%] | remaining activity at 10 µM [6] [%] | SMILES
86 | 90 | 101 | 103 |  |  | Nc1ccc2ccccc2c1-c1c(N)ccc2ccccc12 [1(R), (R)‐[1,1′‐binaphthalene]‐2,2′‐diamine]
 |  |  |  | 117 | 98 | Nc1ccc2ccccc2c1-c1c(N)ccc2ccccc12 [1(S), S‐BINAM]
